Reference: publication PMC2585076, “Development of selective blockers for Ca^2+-activated Cl^- channel using Xenopus laevis oocytes with an improved drug screening strategy” (Molecular Brain, 2008)
Read-outs that look alike come from different tables or passages of the source.

Columns and labels:
[1] = molecular target: T1, Ca^2+-activated Cl^- channel (CaCC) (Xenopus laevis, UniProt B5SVV6); format: cell-based; conditions: block of Cl^- current induced by 5 mM external Ca^2+, ionomycin then thapsigargin treated oocytes, chelerythrine in intracellular solution, holding potential -60 mV
Description: To exclude the effect of PKC in CaCC current, PKC inhibitor chelerythrine was added to the intracellular solution. […] Additional variability in peak amplitude can come from the Ca^2+ induced Ca^2+ release from intracellular stores. To eliminate the contribution of Ca^2+ release from intracellular stores, Ca^2+ ATPase inhibitor, thapsigargin was treated on ionomycin pretreated oocytes. […] Therefore, a reliable protocol for drug screening of CaCCs in Xenopus oocytes was established with treatment of 1 μM thapsigargin for 90 min to ionomycin treated oocytes followed by recording with microelectrodes filled with intracellular solution containing 1 μM chelerythrine.
Using the optimized drug screening protocol, the effect of known blockers of CaCC was tested.
The animals were anaesthetized by cooling with ice [30]. Ovarian follicles were surgically removed, treated with 2 mg/ml collagenase type IA at room temperature for 90 min in Ca^2+ free Barth's solution containing 89 mM NaCl, 1.0 mM KCl, 2.4 mM NaHCO3, 0.82 mM MgSO4 and 10 mM HEPES (pH 7.4). […]

[2] = molecular target: T1, Ca^2+-activated Cl^- channel (CaCC); conditions: endogenous CaCCs in Xenopus laevis oocytes, TEVC; read-out: IC50 * (IC50 previously studied); cited from earlier work

T1 sequence (B5SVV6 entry or part of it): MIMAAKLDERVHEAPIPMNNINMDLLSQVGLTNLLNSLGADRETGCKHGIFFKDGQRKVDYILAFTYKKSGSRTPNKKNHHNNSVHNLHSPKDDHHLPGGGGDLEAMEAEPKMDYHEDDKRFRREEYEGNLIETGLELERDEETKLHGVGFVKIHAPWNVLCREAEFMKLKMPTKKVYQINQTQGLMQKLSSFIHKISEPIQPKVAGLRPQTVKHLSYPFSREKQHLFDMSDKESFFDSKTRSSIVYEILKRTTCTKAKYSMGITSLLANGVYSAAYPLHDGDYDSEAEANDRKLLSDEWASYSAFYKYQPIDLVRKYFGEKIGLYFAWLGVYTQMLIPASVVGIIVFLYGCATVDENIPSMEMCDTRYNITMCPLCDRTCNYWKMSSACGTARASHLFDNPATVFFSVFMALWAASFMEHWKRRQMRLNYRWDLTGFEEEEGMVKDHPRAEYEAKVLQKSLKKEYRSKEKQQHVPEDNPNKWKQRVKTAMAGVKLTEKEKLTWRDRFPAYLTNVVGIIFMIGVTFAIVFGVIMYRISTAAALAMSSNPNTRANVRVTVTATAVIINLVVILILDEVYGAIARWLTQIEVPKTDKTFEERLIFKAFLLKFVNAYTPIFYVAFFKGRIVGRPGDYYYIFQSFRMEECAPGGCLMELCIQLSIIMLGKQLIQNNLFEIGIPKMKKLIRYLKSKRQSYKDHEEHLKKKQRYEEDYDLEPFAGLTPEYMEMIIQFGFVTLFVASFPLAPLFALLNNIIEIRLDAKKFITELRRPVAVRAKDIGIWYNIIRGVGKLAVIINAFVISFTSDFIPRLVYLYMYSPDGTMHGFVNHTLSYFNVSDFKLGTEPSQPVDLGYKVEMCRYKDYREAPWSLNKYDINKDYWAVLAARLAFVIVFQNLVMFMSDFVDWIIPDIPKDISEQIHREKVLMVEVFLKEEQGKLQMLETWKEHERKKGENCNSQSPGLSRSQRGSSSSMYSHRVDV

O=C(O)c1ccccc1Nc1ccc(C(F)(F)F)cc1 [N-(4-trifluoromethylphenyl)anthranilic acid]
IC50 ([1]; read-out: IC50): 6 µM

O=C(O)c1ccccc1Nc1ccccc1 [DPC, diphenylamine-2-carboxylate]
IC50 [2]: 111 µM

O=C(O)c1ccccc1Nc1ccccc1[N+](=O)[O-] [N-(2-Nitrophenyl)-anthranilic acid]
IC50 [1]: low potency
